Assay results taken from the supplement of paper PMC11208160.

Test: recombinant barcode read abundance after kanamycin selection (control-corrected) (log10(CPM+1)); higher = more efficient recombination; sequences stand for … in AGTGCAGAGAAAATCGGCCAGTTTTCTCTGCCTGCAGTCCGCATGCCGT…ATTTATGCAGCGGACTGCCTTTCTCCCAAAGTGATAAACCGGACAGTATCATGGACCGGTTTTCCCGGTAATCCGTATTTGCAAGGTTGGTTTCACT; site = the 11-nt target
How it was run: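 Reported as log10(CPM+1), each value stands for recombination efficiency. That efficiency is the averaged, control-corrected counts per million of barcodes found at recombinant junctions. Cells from a pooled E. coli library pairing targets with IS621 bridge RNA target-binding loops were plated twice on chloramphenicol/ampicillin LB agar (control) and twice on chloramphenicol/ampicillin/kanamycin with 0.1 mM IPTG.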

Sequence	recombinant barcode read abundance (log10)
TCTACCCCTTGGGTTCTAACCTGTTGCTGAT [TCTACCCCTCA_LTGcore_CT_RTGcore_AT] (site TCTACCCCTCA) (LTG core: CT, RTG core: AT)	0.131
TCTACCCCTTGGGTTCTAACCTGTTGCTGGA [TCTACCCCTCA_LTGcore_CT_RTGcore_TC] (site TCTACCCCTCA) (LTG core: CT, RTG core: TC)	0.0313
TCTACCCCTTGGGTTCTAACCTGTTGCTGTA [TCTACCCCTCA_LTGcore_CT_RTGcore_TA] (site TCTACCCCTCA) (LTG core: CT, RTG core: TA)	0.124
TCTACCCGCTGGGTTCTAACCTGTTGCTGGC [TCTACCCCTCA_LTGcore_GC_RTGcore_GC] (site TCTACCCCTCA) (LTG core: GC, RTG core: GC)	0.124
TCTACCCGTTGGGTTCTAACCTGTTGCTGAC [TCTACCCCTCA_LTGcore_GT_RTGcore_GT] (site TCTACCCCTCA) (LTG core: GT, RTG core: GT)	0.0436
TGATACCAATGGGTTCTAACCTGTTGCGTTT [TGATACCCTAC_LTGcore_AA_RTGcore_AA] (site TGATACCCTAC) (LTG core: AA, RTG core: AA)	0.0446
TGATACCAGTGGGTTCTAACCTGTTGCGTCT [TGATACCCTAC_LTGcore_AG_RTGcore_AG] (site TGATACCCTAC) (LTG core: AG, RTG core: AG)	0.256
TGATACCCATGGGTTCTAACCTGTTGCGTTG [TGATACCCTAC_LTGcore_CA_RTGcore_CA] (site TGATACCCTAC) (LTG core: CA, RTG core: CA)	0.0326
TGATACCCTTGGGTTCTAACCTGTTGCGTAC [TGATACCCTAC_LTGcore_CT_RTGcore_GT] (site TGATACCCTAC) (LTG core: CT, RTG core: GT)	0.08
TGATACCCTTGGGTTCTAACCTGTTGCGTAG [TGATACCCTAC_LTGcore_CT_RTGcore_CT] (site TGATACCCTAC) (LTG core: CT, RTG core: CT)	2.73
TGATACCCTTGGGTTCTAACCTGTTGCGTCA [TGATACCCTAC_LTGcore_CT_RTGcore_TG] (site TGATACCCTAC) (LTG core: CT, RTG core: TG)	0.796
TGATACCCTTGGGTTCTAACCTGTTGCGTTA [TGATACCCTAC_LTGcore_CT_RTGcore_TA] (site TGATACCCTAC) (LTG core: CT, RTG core: TA)	0.0153
TGATACCGATGGGTTCTAACCTGTTGCGTTC [TGATACCCTAC_LTGcore_GA_RTGcore_GA] (site TGATACCCTAC) (LTG core: GA, RTG core: GA)	0.269
TGATACCGGTGGGTTCTAACCTGTTGCGTAG [TGATACCCTAC_LTGcore_GG_RTGcore_CT] (site TGATACCCTAC) (LTG core: GG, RTG core: CT)	0.108
TGATACCTGTGGGTTCTAACCTGTTGCGTCA [TGATACCCTAC_LTGcore_TG_RTGcore_TG] (site TGATACCCTAC) (LTG core: TG, RTG core: TG)	0.256
TGTATTCAGTGGGTTCTAACCTGTTGCCTCT [TGTATTCCTAG_LTGcore_AG_RTGcore_AG] (site TGTATTCCTAG) (LTG core: AG, RTG core: AG)	0.00767

Sequence	recombinant barcode read abundance (log10)
TGTATTCATTGGGTTCTAACCTGTTGCCTAG [TGTATTCCTAG_LTGcore_AT_RTGcore_CT] (site TGTATTCCTAG) (LTG core: AT, RTG core: CT)	0.0853
TGTATTCCATGGGTTCTAACCTGTTGCCTAG [TGTATTCCTAG_LTGcore_CA_RTGcore_CT] (site TGTATTCCTAG) (LTG core: CA, RTG core: CT)	0.0466
TGTATTCCTTGGGTTCTAACCTGTTGCCTAG [TGTATTCCTAG_LTGcore_CT_RTGcore_CT] (site TGTATTCCTAG) (LTG core: CT, RTG core: CT)	0.129
TGTATTCCTTGGGTTCTAACCTGTTGCCTTA [TGTATTCCTAG_LTGcore_CT_RTGcore_TA] (site TGTATTCCTAG) (LTG core: CT, RTG core: TA)	0.0748
TGTATTCGATGGGTTCTAACCTGTTGCCTAG [TGTATTCCTAG_LTGcore_GA_RTGcore_CT] (site TGTATTCCTAG) (LTG core: GA, RTG core: CT)	0.0114
TGTATTCGTTGGGTTCTAACCTGTTGCCTAG [TGTATTCCTAG_LTGcore_GT_RTGcore_CT] (site TGTATTCCTAG) (LTG core: GT, RTG core: CT)	0.0893
TTATAAAACTGGGTTCTAACCTGTTGCCTGT [TTATAAACTAG_LTGcore_AC_RTGcore_AC] (site TTATAAACTAG) (LTG core: AC, RTG core: AC)	0.0452
TTATAAAAGTGGGTTCTAACCTGTTGCCTCT [TTATAAACTAG_LTGcore_AG_RTGcore_AG] (site TTATAAACTAG) (LTG core: AG, RTG core: AG)	0.0267
TTATAAACGTGGGTTCTAACCTGTTGCCTCG [TTATAAACTAG_LTGcore_CG_RTGcore_CG] (site TTATAAACTAG) (LTG core: CG, RTG core: CG)	0.193
TTATAAACTTGGGTTCTAACCTGTTGCCTCA [TTATAAACTAG_LTGcore_CT_RTGcore_TG] (site TTATAAACTAG) (LTG core: CT, RTG core: TG)	0.402
TTATAAACTTGGGTTCTAACCTGTTGCCTCT [TTATAAACTAG_LTGcore_CT_RTGcore_AG] (site TTATAAACTAG) (LTG core: CT, RTG core: AG)	0.0489
TTATAAACTTGGGTTCTAACCTGTTGCCTGT [TTATAAACTAG_LTGcore_CT_RTGcore_AC] (site TTATAAACTAG) (LTG core: CT, RTG core: AC)	0.0449
TTATAAACTTGGGTTCTAACCTGTTGCCTTA [TTATAAACTAG_LTGcore_CT_RTGcore_TA] (site TTATAAACTAG) (LTG core: CT, RTG core: TA)	0.076
TTATAAAGCTGGGTTCTAACCTGTTGCCTGC [TTATAAACTAG_LTGcore_GC_RTGcore_GC] (site TTATAAACTAG) (LTG core: GC, RTG core: GC)	0
TTATAAATCTGGGTTCTAACCTGTTGCCTAG [TTATAAACTAG_LTGcore_TC_RTGcore_CT] (site TTATAAACTAG) (LTG core: TC, RTG core: CT)	0.235
TTATAAATTTGGGTTCTAACCTGTTGCCTAA [TTATAAACTAG_LTGcore_TT_RTGcore_TT] (site TTATAAACTAG) (LTG core: TT, RTG core: TT)	0.0515
